Consider seven compounds from patent US6884808B2, “Heterocycle-containing carboxylic acid derivative and drug containing the same” (Eisai Co. Ltd., priority 1995, dated 2005).

The target of series [1] is T1, Retinoic acid receptor: RAR (Homo sapiens, UniProt P10276).
T1 construct: using a fraction extracted from the nucleus of HL60; endogenous in cells; host or cells: HL60 cells, nucleus-extracted fraction (0.4 M KCl extract, 100,000 x g supernatant)
T1 sequence (P10276 1-462): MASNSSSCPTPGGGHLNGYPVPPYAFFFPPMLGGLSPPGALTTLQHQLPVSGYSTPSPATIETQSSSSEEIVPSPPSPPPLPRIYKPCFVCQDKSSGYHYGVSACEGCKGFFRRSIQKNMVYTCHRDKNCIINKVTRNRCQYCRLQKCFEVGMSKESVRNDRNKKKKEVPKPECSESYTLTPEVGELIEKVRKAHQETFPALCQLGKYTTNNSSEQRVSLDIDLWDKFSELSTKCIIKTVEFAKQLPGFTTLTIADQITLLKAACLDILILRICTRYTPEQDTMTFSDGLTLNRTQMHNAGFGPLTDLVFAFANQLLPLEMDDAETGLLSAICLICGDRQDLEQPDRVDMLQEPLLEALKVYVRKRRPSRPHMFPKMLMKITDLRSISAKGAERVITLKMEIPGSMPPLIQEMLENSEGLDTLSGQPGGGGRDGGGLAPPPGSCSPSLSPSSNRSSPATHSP
Kind of series: Receptor binding assay by using human promyelocytic leukemia cells HL60 (nucleus-extracted fraction, 3H-all-trans retinoic acid). To be noted: 50% inhibition concentration of 3H-all-trans retinoic acid binding, 4° C. for 16 hours. The method, then: Receptor binding assay by using human promyelocytic leukemia cells HL60
The nucleus-extracted fraction was prepared as described below.
In 15 ml of Solution A [5 mM sodium phosphate (pH 7.4), 10 mM monothioglycerol, 10% v/v glycerol, 1 mM phenylmethyl sulfonyl fluoride (PMSF), 10 μg/ml of aprotinin and 25 μg/ml of leupeptin], HL60 cells (5×10^8) were suspended. The resulting suspension was homogenized, followed by centrifugal separation to remove the supernatant. The precipitate so obtained was suspended in 15 ml of Solution B [10 mM tris-HCl (Tris-HCl) (pH 8.5), 10 mM monothioglycerol, 10% (v/v) glycerol, 1 mM PMSF, 10 μg/ml aprotinin, 25 μg/ml leupeptin and 0.4 M KC1]. After being allowed to stand at 4° C. for one hour, the resulting suspension was subjected to ultracentrifugation at 100,000 xg and 4° C. for one hour.
Receptor binding assay was carried out as follows:
The resulting mixture was allowed to stand at 4° C. for 16 hours. […] The count of the supernatant was determined by a scintillation counter.

Series [2] relates to HL60 cells. Kind of series: Differentiation and induction effects on HL60 cells (CD11b positive cells, flow cytometry). Format: cell-based. To be noted: Homo sapiens, HL-60, 120 h; concentration at which the existing ratio of CD11b positive cells becomes 33%; cultivation for 5 days; read-out: Differentiation and induction effects of HL60 cells ED1/3. From the text: Differentiation and Induction Effects on HL60 Cells
It is known that human-derived promyelocytic leukemia cell strains HL60 differentiate into the corresponding granulocytic cells in the presence of all-trans retinoic acid [Breitman, T. Selonick., S. and Colling, S. Proc. Natl. Acad. Sci., 77, 2936(1980)]. In general, cells after differentiation have come to express specific differentiated antigens on their surface. When the HL60 cells are differentiated into granulocytic cells, CD11b which is a differential antigen between granulocytes and monocytes is expressed on the surface of the cells [Fontana, J A., Reppuci, A. Durham, J P. and Mirand, D. Cancer Res. 46, 2469-2473(1986)]. Effects of the invention compound on the differentiation and induction into granulocyte cells were studied by making use of the above-described phenomenon.
HL60 cells were cultured and kept in RPMI 1640 (a medium formulated by Rosewell Park Memorial Institute) to which 10% bovine fetal serum, 1 mM sodium […], 50 μM β-mercaptoethanol, 100 IU/ml of penicillin and 100 μg/ml of streptomycin had been added.
On each well of a 24-well plate, a 1 ml portion of the suspension containing HL60 in an amount of 1×10^5 […] was seeded. The invention compound was then added thereto at varied concentrations, followed by cultivation for 5 days in a 5% CO2-air incubator. After cultivation, the cells of each well were collected in a test tube, to which an FITC-labeled monoclonal antibody against Cd11b, that is, a granulocyte-monocyte specific antigen was added. The cells were then immobilized with 0.2% paraformaldehyde. The existing ratio of CD11b positive cells in the vial HL60 cell group present in each well was determined using flow cytometry [Miller, L J., Schwarting, R. and Springer, T A. J. Immunol. 137, 2891-2900(1986)]. The existing ratios of CD11b positive cells-of-compounds which will be described below were increased according to the concentration. The concentration at which the existing ratio of the positive cells becomes 33% is defined as ED1/3.

Some results are limits rather than exact numbers.

The IC50 is the concentration that inhibits the measured activity by half. Regarding `CC1(C)CCC(C)(C)c2nc(-c3cc(-c4ccc(C(=O)O)cc4)co3)cnc21` [Compound of Ex. 4, 4-[4-[2-[2-(5,6,7,8-Tetrahydro-5,5,8,8-tetramethylquinoxalyl)]furyl]]benzoic acid], the IC50 in series [1] worked out at 7.2 nM. Further, the EC (33% CD11b positive cells) in series [2] was 0.0002 µM.

For the compound `CC1(C)CCC(C)(C)c2nc(-c3ccc(-c4ccc(C(=O)O)cc4)[nH]3)cnc21` [Compound of Ex. 6, 4-[2-[5-[2-(5,6,7,8-Tetrahydro-5,5,8,8-tetramethylquinoxalyl)]pyrrolyl]]benzoic acid], the IC50 in series [1] amounted to 1.6 nM. In addition, the EC (33% CD11b positive cells) in series [2] came to 5.6e-05 µM.

On to `CC1(C)CCC(C)(C)c2nc(-c3cc(-c4ccc(C(=O)O)cc4)no3)cnc21` [Compound of Ex. 23, 4-[3-[5-[2-(5,6,7,8-Tetrahydro-5,5,8,8-tetramethylquinoxalyl)]isoxazolyl]]benzoic acid], for which the half-maximal inhibitory concentration (IC50) in series [1] came out at 11 nM. Besides, the EC (33% CD11b positive cells) in series [2] stood at 0.0006 µM.

Usually melting point stands for the temperature of the solid-liquid transition. For the compound `CC(C)c1ncc(-c2ccc(-c3ccc(C(=O)O)cc3)[nH]2)nc1C(C)C` [Compound of Ex. 42, 4-[2-[5-[2-(5,6-Diisopropylpyrazinyl)]pyrrolyl]]benzoic acid], the melting point is 246 °C (dec.). Besides, the IC50 in series [1] came out at 2 nM. For the same compound, the EC (33% CD11b positive cells) in series [2] came to 0.00033 µM.

As to `CC1(C)CC(C)(C)c2nc(-c3ccc(-c4ccc(C(=O)O)cc4)[nH]3)cnc21` [Compound of Ex. 43, 4-[2-[5-[2-(5,5,7,7-Tetramethylcyclopenta[b]pyrazinyl)]-pyrrolyl]]benzoic acid], the melting point is 269 °C (dec.). The same compound gave a 50% inhibitory concentration (IC50) in series [1] of 36 nM. Also, the EC (33% CD11b positive cells) in series [2] was found to be 0.00036 µM.

As to `CN1CCCC(C)(C)c2cc(-c3ccc(-c4ccc(C(=O)O)cc4)[nH]3)ccc21` [Compound of Ex. 85, 4-{2-{5-[7-(1,5,5-Trimethyl-2,3,4,5-tetrahydro-1H-benzazepinyl)]pyrrolyl}}benzoic acid], the IC50 in series [1] is under 0.5 nM. For the same compound, the EC (33% CD11b positive cells) in series [2] was found to be 0.001 µM.

In series [1], `CC(C)c1cc(-c2ccc(-c3ccc(C(=O)O)cc3)[nH]2)nn1C(C)(C)C` [Compound of Ex. 99, 4-{2-{5-[3-(1-tert-Butyl-5-isopropylpyrazolyl)]pyrrolyl}}benzoic acid] had a 50% inhibitory concentration (IC50) of 3.4 nM. Besides, the EC (33% CD11b positive cells) in series [2] was determined as 4.7e-05 µM.
